The subject of this experiment is Pseudomonas aeruginosa ST111. In words: MIC determination, fixed concentration of sBLI (Examples 27-30). The note with it: VIM-2, OXA-395, PDC-3, caMHB, 29.4 μM Zn2+. It is filed as cell-based. The method, then: Antimicrobial susceptibility testing (AST) by broth microdilution (MIC determination) was performed according to The European Committee on Antimicrobial Susceptibility Testing (EUCAST) guidelines (see Reading guide for broth microdilution Version 5.0, 2024: https://www.eucast.org).
For combinations containing meropenem as the antibiotic, Sensititre™ FINMER meropenem 64-0.03 μg/mL plates (Thermo Fischer Diagnostics custom plates; YFINMER) were used in most of the experiments. For other antibiotics (and for meropenem whenever a higher start concentration than 64 μg/mL was needed) sterile clear round bottom polystyrene (non-treated) 96-well microplates (Corning 3788) were used for making serial two-fold dilutions of the antibiotic in cation-adjusted Mueller Hinton II broth (caMHB; Thermo Scientific, T3462, containing 29.4 μM Zn^2+ or MILLIPORE, 90922-500G, containing 5.6 μM Zn^2+), across the columns of the microtiter plate (128-0.06 μg/mL; columns 1-12).
The checkerboard plates were all modified by adding a serine β-lactamase inhibitor (sBLI) at a fixed concentration of 16 μg/mL. Additionally, the zinc chelator was added at various fixed concentrations. […]

“And” between values parts separate entries of the source, which are not always exact repeats. Equal entries are not always repeated.

With `CN(C[C@H](O)[C@@H](O)[C@H](O)[C@H](O)CO)C(=O)c1ccc(CN(Cc2ccccn2)Cc2ccccn2)nc1` [zinc chelator], the “Synergy with the zinc chelator observed at concentration” value was 16 µg/mL (Example 27, with PIP and AVI 16 μg/mL); 16 µg/mL and 8 µg/mL (Example 28, with PIP and TAZ 16 μg/mL).

The values are drawn from patent publication US20260306526A1, “COMBINATION THERAPY FOR BACTERIAL INFECTIONS COMPRISING ZINC-CHELATOR, BETA-LACTAM ANTIBIOTIC AND SERINE BETA-LACTAMASE INHIBITOR” (priority 2023, published 2026).
